Assay results reported in the supplement of paper PMC10307832.

How the values were obtained:
Experiment in all cases: relative viability (nuclei count vs DMSO), 5 days (fraction); higher = more cells survive
Decitabine + Vorinostat = compound: Nc1ncn([C@H]2C[C@H](O)[C@@H](CO)O2)c(=O)n1 [Decitabine] + O=C(CCCCCCC(=O)Nc1ccccc1)NO [Vorinostat] (partner 1 µM)
Outline: (§1)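 Relative viability equals treated-well nuclei counts divided by vehicle-well nuclei counts. Counts came from 4× images of lung cancer cell lines grown in 1536-well plates for 5 days after pin-tool dosing on the day after seeding. Dosing used one drug alone or a fixed anchor-drug dose plus five library-drug doses (not always all listed) in √10 steps, and values are medians of duplicate plates.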

Cediranib + Navitoclax = compound: COc1cc2c(Oc3ccc4[nH]c(C)cc4c3F)ncnc2cc1OCCCN1CCCC1 [Cediranib] + CC1(C)CCC(c2ccc(Cl)cc2)=C(CN2CCN(c3ccc(C(=O)NS(=O)(=O)c4ccc(N[C@H](CCN5CCOCC5)CSc5ccccc5)c(S(=O)(=O)C(F)(F)F)c4)cc3)CC2)C1 [Navitoclax] (partner 0.5 µM)
Outline: as §1

[1] = compound: O=C(C[C@H]1NCCC[C@@H]1O)Cn1cnc2cc(Br)c(Cl)cc2c1=O (racemic) [Halofuginone] + CS(=O)(=O)N1CCN(Cc2cc3nc(-c4cccc5[nH]ncc45)nc(N4CCOCC4)c3s2)CC1 [Pictilisib] (partner 1 µM)
Outline: as §1

Cediranib + Tozasertib = compound: COc1cc2c(Oc3ccc4[nH]c(C)cc4c3F)ncnc2cc1OCCCN1CCCC1 [Cediranib] + Cc1cc(Nc2cc(N3CCN(C)CC3)nc(Sc3ccc(NC(=O)C4CC4)cc3)n2)n[nH]1 [Tozasertib] (partner 0.1 µM)
Outline: as §1

Cell Line	relative viability (Decitabine + Vorinostat; first compound 0.04 µM)	relative viability (Decitabine + Vorinostat; first compound 0.1265 µM)	relative viability (Decitabine + Vorinostat; first compound 0.4 µM)	relative viability (Decitabine + Vorinostat; first compound 4 µM)	relative viability (Cediranib + Navitoclax; first compound 0.04 µM)	relative viability (Cediranib + Navitoclax; first compound 0.1265 µM)	relative viability (Cediranib + Navitoclax; first compound 0.4 µM)	relative viability (Cediranib + Navitoclax; first compound 1.265 µM)	relative viability (Cediranib + Navitoclax; first compound 4 µM)	relative viability ([1]; first compound 0.001 µM)	relative viability ([1]; first compound 0.003162 µM)	relative viability ([1]; first compound 0.01 µM)	relative viability ([1]; first compound 0.03162 µM)	relative viability ([1]; first compound 0.1 µM)	relative viability (Cediranib + Tozasertib; first compound 0.04 µM)	relative viability (Cediranib + Tozasertib; first compound 0.1265 µM)	relative viability (Cediranib + Tozasertib; first compound 0.4 µM)	relative viability (Cediranib + Tozasertib; first compound 1.265 µM)	relative viability (Cediranib + Tozasertib; first compound 4 µM)	relative viability (Decitabine + Vorinostat; first compound 1.265 µM)
201T	0.939	1.01	0.952	0.884	1.25	1.28	1.15	1.2	1.21	0.708	0.647	0.666	0.597	0.516	1.1	1.19	0.875	0.966	0.889	
A549					1.29	1.34	1.23	1.25	1.24	0.569	0.547	0.53	0.347	0.0767						
A-427	0.789	0.732	0.526	0.396	0.903		0.909	0.875	0.94	0.683	0.749	0.73	0.756	0.66	0.208		0.198	0.237	0.217	0.411
ABC-1		0.842	0.964	0.795						0.415	0.922	0.836	0.728	0.51	0.161	0.179	0.186		0.191	0.888
BEN	0.664	0.623	0.451	0.435	0.0686	0.0663	0.0683	0.0702	0.0649	0.52	0.587	0.547	0.594	0.425	0.446		0.554		0.627	0.488
CAL-12T	0.615	0.432	0.486	0.238	1.33	1.33	1.37	1.27	1.34	0.691	0.277		0.468	0.323	0.333	0.333	0.29	0.397	0.293	0.318
COR-L23	0.258	0.259	0.184	0.126	0.966	1.14	0.893	0.922	1.03	0.954	0.963	0.801	0.6	0.156	0.182	0.192	0.19	0.264	0.183	0.132
COR-L 105	0.768	0.721	0.61	0.439		0.842	0.733	0.756	0.693	0.437	0.432	0.412	0.338	0.31	0.392	0.364	0.343	0.329	0.388	0.585
Calu-6					0.876	0.86	0.898	0.788	0.819	0.968	0.873	0.849	0.327	0.11						
ChaGo-K-1	0.771	0.684	0.402	0.374	1.02		0.952	1.23	0.83	0.587	0.397	0.683	0.669	0.776	0.214	0.263	0.236	0.202	0.209	0.39
EBC-1					0.388	0.441	0.37	0.52	0.455	0.441	0.31	0.263	0.195	0.101						
EKVX	0.455	0.506	0.507	0.335	1.01	0.74	0.912	0.903	1.02	0.442	0.442	0.443	0.469	0.354	0.349	0.502	0.366	0.436	0.473	0.432
EMC-BAC-2		0.456	0.538	0.43	1.3	1.16	1.12	1.17	1.06	0.491	0.55	0.489	0.54	0.46	0.284	0.238	0.278	0.286	0.3	0.414
EPLC-272H	0.369	0.281		0.215	1.35		1.05	1.15	1.27	0.324	0.306	0.338	0.352	0.325	0.267		0.31		0.297	0.221
H3255		0.846	0.638	0.76	0.673	0.429	0.447	0.453	0.376	0.472	0.482	0.437	0.394	0.447	0.578		0.599	0.654	0.43	0.487
HARA	0.507	0.377	0.345	0.214	1.16	1.03	1.15	1.14	1.18	0.556	0.461	0.402	0.436	0.235	0.125		0.107	0.118	0.123	0.213
HCC-15	0.776	0.678	0.543	0.35	0.742		0.693	0.678	0.767	0.721	0.852	0.7	0.857	0.673	0.507		0.391	0.36	0.358	0.418
HCC-44	1.06	0.982	0.839	0.785	0.972		1.01	0.965	1.11	0.545	0.605	0.592	0.67	0.399			0.893	1.05	0.831	0.904

Cell Line	relative viability (Decitabine + Vorinostat; first compound 0.04 µM)	relative viability (Decitabine + Vorinostat; first compound 0.1265 µM)	relative viability (Decitabine + Vorinostat; first compound 0.4 µM)	relative viability (Decitabine + Vorinostat; first compound 4 µM)	relative viability (Cediranib + Navitoclax; first compound 0.04 µM)	relative viability (Cediranib + Navitoclax; first compound 0.1265 µM)	relative viability (Cediranib + Navitoclax; first compound 0.4 µM)	relative viability (Cediranib + Navitoclax; first compound 1.265 µM)	relative viability (Cediranib + Navitoclax; first compound 4 µM)	relative viability ([1]; first compound 0.001 µM)	relative viability ([1]; first compound 0.003162 µM)	relative viability ([1]; first compound 0.01 µM)	relative viability ([1]; first compound 0.03162 µM)	relative viability ([1]; first compound 0.1 µM)	relative viability (Cediranib + Tozasertib; first compound 0.04 µM)	relative viability (Cediranib + Tozasertib; first compound 0.1265 µM)	relative viability (Cediranib + Tozasertib; first compound 0.4 µM)	relative viability (Cediranib + Tozasertib; first compound 1.265 µM)	relative viability (Cediranib + Tozasertib; first compound 4 µM)	relative viability (Decitabine + Vorinostat; first compound 1.265 µM)
HCC-78	0.54	0.476	0.477	0.346	0.934	0.824	0.764	0.762	0.758	0.216	0.193	0.206	0.21	0.221	0.448	0.474	0.512	0.54	0.441	0.448
HCC-366	0.235	0.313	0.138	0.0657	1.07	0.983	1.11	1.07	1.07	0.231	0.14	0.216	0.144	0.184	0.114	0.0898	0.125	0.136	0.147	0.0554
HCC-827	0.143	0.32	0.303	0.287	1.02		1.02	1.04	1.1	0.874	1.05	0.962	1.08	0.777	0.529		0.407	0.414	0.351	0.243
HOP-62	0.348	0.316	0.161	0.11	1.08	0.892	0.867	1.1	1.14	0.661	0.781	0.766	0.53	0.239	0.366	0.457	0.388	0.379	0.352	0.123
IA-LM	0.853	0.403	0.393	0.164	0.875	0.921	0.652	0.672	1.09	0.415	0.26	0.288	0.256	0.057						0.236
LCLC-103H	0.653	0.81	0.628	0.561						0.627	0.605	0.601	0.668	0.685	0.501	0.505	0.467	0.469	0.5	0.511
NCI-H358	0.257	0.209	0.14	0.0904						0.364	0.351	0.359	0.245	0.196	0.123	0.0968	0.0956	0.105	0.101	0.0806
NCI-H522	0.898	0.684	0.562	0.54											0.687	0.465	0.541	0.535	0.51	0.505
NCI-H650	0.338	0.301	0.204	0.16						0.956	0.953	1.02	0.801	0.566	0.739	0.563	0.709	0.774	0.707	0.219
NCI-H661	0.806	0.602	0.54	0.485						0.496	0.355	0.365	0.408	0.444	0.255	0.365	0.338	0.349	0.372	0.467
NCI-H1299					1.07	1.02	1.03	1.07	1.08	1.01	0.806	0.619	0.232	0.077						
NCI-H1563										0.671	0.644	0.685	0.588	0.575						
NCI-H1623															0.453		0.427	0.469	0.43	
NCI-H1648	0.384	0.386	0.305	0.315											0.55		0.449	0.502	0.442	0.249
NCI-H1703					1.11	0.916	0.287	0.237	0.238	0.252	0.264	0.247	0.214	0.193						
NCI-H1792					0.446	0.442	0.588	0.668	0.393	0.336	0.228	0.3	0.34	0.243						
NCI-H2342	0.755	0.798	0.728	0.522											0.54	0.575	0.568	0.536	0.484	0.542
SW 900	0.333	0.42	0.33	0.286											0.605	0.507	0.584	0.48	0.571	0.193
